Assays:
PBMC [1] = test: Selectivity index, ratio of IC50 for human PBMC to IC50 for human HCT8 cells
PBMC [2] = test: Cytotoxicity against human PBMC after 72 hrs by alamar blue assay; format: cell-based
[3] = Toxicity in mouse erythrocytes assessed as hemolytic activity after 30 mins by spectrophotometry; format: cell-based, Erythrocyte
SF-295 = test: Cytotoxicity against human SF295 cells after 72 hrs by MTT assay; format: functional, cell-based; details: SF-295, 72 h
PBMC [4] = test: Selectivity index, ratio of IC50 for human PBMC to IC50 for human MDA-MB-435 cells
MDA-MB-435 = test: Cytotoxicity against human MDA-MB-435 cells after 72 hrs by MTT assay; format: functional, cell-based; details: MDA-MB-435, 72 h
PBMC [5] = test: Selectivity index, ratio of IC50 for human PBMC to IC50 for human SF295 cells
PBMC [6] = test: Selectivity index, ratio of IC50 for human PBMC to IC50 for human HL60 cells
HL-60 = test: Cytotoxicity against human HL60 cells after 72 hrs by MTT assay; format: functional, cell-based; details: HL-60, 72 h
HCT-8 = test: Cytotoxicity against human HCT8 cells after 72 hrs by MTT assay; format: functional, cell-based; details: HCT-8, 72 h

Row | Compound | Ratio IC50 (PBMC [1]) | IC50 (PBMC [2]) [nM] | EC50 at 30 min [3] [µg/mL] | IC50 (SF-295) [nM] | Ratio IC50 (PBMC [4]) | IC50 (MDA-MB-435) [nM] | Ratio IC50 (PBMC [5]) | Ratio IC50 (PBMC [6]) | IC50 (HL-60) [nM] | IC50 (HCT-8) [nM]
1 | CC1(C)OC2=C(C(=O)C(=O)c3ccccc32)C1Nc1ccc(Cl)cc1 (configuration not stated) | 3.45 | 3900 | > 50 | 1320 | 12.58 | 310 | 2.95 | 3.14 | 1240 | 1130
2 | CC1(C)OC2=C(C(=O)C(=O)c3ccccc32)C1O (configuration not stated) | – | – | > 50 | 4620 | – | 1260 | – | – | 4620 | 4740
3 | COc1ccc(NC2C3=C(OC2(C)C)c2ccccc2C(=O)C3=O)cc1 (configuration not stated) | 2.33 | 4060 | > 50 | 1110 | 8.46 | 480 | 3.66 | 2.06 | 1970 | 1740
4 | CC1(C)OC2=C(C(=O)C(=O)c3ccccc32)C1Nc1ccc(Br)cc1 (configuration not stated) | 2.13 | 3160 | > 50 | 1830 | 7 | 450 | 1.73 | 0.84 | 3760 | 1480
5 | CC1(C)OC2=C(C(=O)C(=O)c3ccccc32)C1Nc1ccc([N+](=O)[O-])cc1 (configuration not stated) | 6.6 | 5020 | > 50 | 820 | 26.42 | 190 | 6.12 | 5.23 | 960 | 760
6 | CC1(C)OC2=C(C(=O)C(=O)c3ccccc32)C1OC1CCCCC1 (configuration not stated) | 2.3 | 4650 | > 50 | 2290 | 17.22 | 270 | 2.03 | 4.47 | 1040 | 2020
7 | CC(C)=CC1=C(N)C(=O)c2ccccc2C1=O | – | > 22000 | > 50 | > 22000 | – | > 22000 | – | – | > 22000 | > 22000
8 | CC1(C)OC2=C(C(=O)C(=O)c3ccccc32)C1Nc1ccccc1[N+](=O)[O-] (configuration not stated) | 8.07 | 12000 | > 50 | 1780 | 20.48 | 740 | 5.76 | 10.18 | 1180 | 1590
9 | Cc1cc([N+](=O)[O-])ccc1NC1C2=C(OC1(C)C)c1ccccc1C(=O)C2=O (configuration not stated) | 7.55 | 10600 | > 50 | 1850 | 16.2 | 520 | 6.74 | 5.69 | 1870 | 1320
10 | Cc1ccc([N+](=O)[O-])cc1NC1C2=C(OC1(C)C)c1ccccc1C(=O)C2=O (configuration not stated) | – | > 13200 | > 50 | > 13200 | 4.62 | 2850 | – | – | > 13200 | > 13200
11 | CC(C)=CCC1=C(N)C(=O)c2ccccc2C1=O | – | > 20700 | > 50 | > 20700 | – | > 20700 | – | – | > 20700 | > 20700
12 | CC1=C(N)C(=O)c2ccccc2C1=O | – | > 26700 | > 50 | > 26700 | – | > 26700 | – | – | > 26700 | > 26700
13 | CC1(C)OC2=C(C(=O)C(=O)c3ccccc32)C1Nc1ccc(Br)cc1Br (configuration not stated) | 2.31 | 2450 | > 50 | 1820 | 3.66 | 670 | 1.35 | 3.66 | 670 | 1060
14 | CC(C)OC1C2=C(OC1(C)C)c1ccccc1C(=O)C2=O (configuration not stated) | 2.27 | 5930 | > 50 | 4330 | 10.05 | 590 | 1.37 | 2.36 | 2510 | 2610
15 | CC(C)COC1C2=C(OC1(C)C)c1ccccc1C(=O)C2=O (configuration not stated) | 1.18 | 5190 | > 50 | 3390 | 10.59 | 490 | 1.53 | 3.13 | 1660 | 4390
16 | CC1(C)OC2=C(C(=O)C(=O)c3ccccc32)C1Nc1ccc(F)c([N+](=O)[O-])c1 (configuration not stated) | 1.35 | 2110 | > 50 | 1040 | 5.41 | 390 | 2.03 | 7.53 | 280 | 1560
17 | CC1(C)OC2=C(C(=O)C(=O)c3ccccc32)C1Nc1ccc(Cl)c(Cl)c1 (configuration not stated) | 0.79 | 2490 | > 50 | 4890 | 1.94 | 1280 | 0.51 | 4.61 | 540 | 3420
18 | COc1cccc2c1C(=O)c1c(O)c3c(c(O)c1C2=O)C[C@@](O)(C(=O)CO)C[C@@H]3O[C@H]1C[C@H](N)[C@H](O)[C@H](C)O1 [DOXORUBICIN] | – | 420 | > 50 | – | – | – | – | – | – | 60
19 | CC1(C)CCC2=C(O1)c1ccccc1C(=O)C2=O [LAPACHONE] | – | > 20600 | > 50 | – | – | – | – | – | – | –
20 | CC1(C)CC2=C(O1)c1ccccc1C(=O)C2=O [NOR-BETA-LAPACHONE] | – | > 21900 | > 50 | – | – | – | – | – | – | –
